In patent publication US20260256925A1, “INDAZOLE DERIVATIVES AS ESTROGEN RECEPTOR DEGRADERS” (REGENTS OF THE UNIVERSITY OF MICHIGAN, priority 2022, published 2026):

Key:
ER = molecular target: T1, ER (Homo sapiens, UniProt P03372); assay: In-cell western blot analysis, relative ER percentage (compounds B1-B126); format: cell-based; conditions: ER degradation, 16 hours, read-out: ICW DC50
T1 construct: endogenous in cells; probably T47D or MCF-7
T1 sequence (P03372 1-595): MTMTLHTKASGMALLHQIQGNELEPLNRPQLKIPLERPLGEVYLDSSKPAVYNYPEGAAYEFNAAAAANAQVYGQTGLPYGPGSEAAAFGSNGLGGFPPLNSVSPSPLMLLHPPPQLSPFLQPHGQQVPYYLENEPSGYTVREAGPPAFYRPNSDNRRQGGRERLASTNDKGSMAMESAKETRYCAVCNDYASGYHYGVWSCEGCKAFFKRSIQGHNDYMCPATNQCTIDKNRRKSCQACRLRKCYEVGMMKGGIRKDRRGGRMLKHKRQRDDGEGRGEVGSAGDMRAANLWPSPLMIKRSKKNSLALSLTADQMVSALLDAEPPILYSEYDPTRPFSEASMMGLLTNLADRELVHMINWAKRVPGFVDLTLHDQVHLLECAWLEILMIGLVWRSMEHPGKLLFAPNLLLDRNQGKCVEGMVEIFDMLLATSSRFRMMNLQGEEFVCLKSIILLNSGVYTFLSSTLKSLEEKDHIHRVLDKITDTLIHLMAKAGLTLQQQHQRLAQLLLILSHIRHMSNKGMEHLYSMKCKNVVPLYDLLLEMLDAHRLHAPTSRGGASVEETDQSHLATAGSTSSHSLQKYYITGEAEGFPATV
Description: In-cell western blot analysis. Cells are seeded in multi-well plates (e.g., at 40,000 or 10,000 cells/well). Diluted compounds at certain concentration are added (final 0.5% DMSO) and cells are incubated for a certain period of time (e.g., 16 hours). Formaldehyde (e.g., PBS: FA=9:1) is added and followed by washing with PBS. The cells are blocked with Licor blocking buffer (Li-Cor). The relative ER percentage in treated cells are obtained by comparing the values of treated wells to those in untreated and DMSO-treated wells as 100%.
In-cell western blot analysis. a. seed cells in black-sided/clear bottom 96- or 384-well plates at 40,000 or 10,000 cells/well, overnight; b. add diluted compounds (final 0.5% DMSO), 16 hours. […] RT 2h, gentle shaking. Negative control: cells plus secondary antibodies (no primary antibodies); e. wash×4 with PBS +0.05-0.1% Tween 20, gentel shaking; f. anti-rabbit-680 and anti-mouse-800 (both 1:1000 in LiCor block+0.05% Tween20, RT 1h, gentle shaking, no light. LI-COR: 0.2% to reduce background; g. wash×4 with PBS+0.05% Tween 20, gental shaking; h. add 100 μL or 25 μL of PBS to each well and read on CLX plate reader. The relative ER percentage in treated cells were obtained by comparing the values of treated wells to those in untreated and DMSO-treated wells as 100%.

[1] = Cell growth assay, WST-8 (compounds B1-B126); format: cell-based; conditions: 96 h; T47D cell line, WST-8, 4 days; read-out: Cell growth inhibition in T47D cell line IC50
Description: Cell Growth Assay. The cells are seeded at certain concentration (e.g., at 1500/well) in multi-well plates overnight. Cells are subsequently treated with the compounds. A certain period of time (e.g., 4 days) after the compound treatment, 10% WST-8 reagent is added to the culture medium and incubate under certain condiction (e.g., in a CO2 incubator at 37° C. for 2.5 hours). The absorbance is measured on each sample using a microplate reader at certain wavelength (e.g., 450 nm). The relative absorbance is calculated against the vehicle control from three individually repeats.
Cell Growth Assay. The cells were seeded at 1500/well in 96 well plates overnight. One day after the seeding, they were treated with indicated doses of compounds respectively. 4 days after the compound treatment, 10% WST-8 reagent was added to the culture medium and incubate in a CO2 incubator at 37° C. for 2.5 hours. Before reading, the plate was mixed gently on an orbital shaker for one minute to ensure homogeneous distribution of color. The absorbance was measured of each sample using a microplate reader at a wavelength of 450 nm. The relative absorbance was calculated against the vehicle control from three individually repeats.

| Structure (SMILES) | DC50 (ER) [nM] | IC50 [1] [nM] |
| --- | --- | --- |
| C[C@@H]1Cc2c(ccc3[nH]ncc23)[C@@H](c2c(F)cc(N3CC4(CN(CC(=O)N5CCN6c7ccc8c(c7OC[C@H]6C5)CN(C5CCC(=O)NC5=O)C8=O)C4)C3)cc2F)N1CC(F)F (stereo partly drawn) [Compound B98, 3-((R)-7-(2-(6-(4-((6S,8R)-7-(2,2-difluoroethyl)-8-methyl-6,7,8,9-tetrahydro-3H-pyrazolo[4,3-f]isoquinolin-6-yl)-3,5-difluorophenyl)-2,6-diazaspiro[3.3]heptan-2-yl)acetyl)-1-oxo-1,3,5,5a,6,7,8,9-octahydro-2H-pyrazino[1′,2′:4,5][1,4]oxazino[2,3-e]isoindol-2-yl)piperidine-2,6-dione] | < 10 | < 1 |
| C[C@H]1Cc2c(ccc3[nH]ncc23)[C@H](c2ccc(NC3CN(C(=O)CN4CCN5c6cc7c(cc6OC[C@@H]5C4)C(=O)N(C4CCC(=O)NC4=O)C7)C3)cn2)N1CC(F)(F)F (stereo partly drawn) [Compound B35, 3-((S)-3-(2-(3-((6-((6R,8S)-8-methyl-7-(2,2,2-trifluoroethyl)-6,7,8,9-tetrahydro-3H-pyrazolo[4,3-f]isoquinolin-6-yl)pyridin-3-yl)amino)azetidin-1-yl)-2-oxoethyl)-8-oxo-1,2,3,4,4a,5,8,10-octahydro-9H-pyrazino[1′,2′:4,5][1,4]oxazino[2,3-f]isoindol-9-yl)piperidine-2,6-dione] | 10 to 100 | > 10 |
| C[C@@H]1Cc2c(ccc3[nH]ncc23)[C@@H](c2ccc(N3CC4(CC(CN5CCN6c7cc8c(cc7OC[C@@H]6C5)C(=O)N(C5CCC(=O)NC5=O)C8)CO4)C3)cn2)N1CC(F)(F)F (stereo partly drawn) [Compound B97, 3-((4aS)-3-((2-(6-((6S,8R)-8-methyl-7-(2,2,2-trifluoroethyl)-6,7,8,9-tetrahydro-3H-pyrazolo[4,3-f]isoquinolin-6-yl)pyridin-3-yl)-5-oxa-2-azaspiro[3.4]octan-7-yl)methyl)-8-oxo-1,2,3,4,4a,5,8,10-octahydro-9H-pyrazino[1′,2′:4,5][1,4]oxazino[2,3-f]isoindol-9-yl)piperidine-2,6-dione] | < 10 | < 1 |
| C[C@@H]1Cc2c(ccc3[nH]ncc23)[C@@H](c2ccc(N3CCC4(CC3)CC(CN3CCN5c6ccc(C(=O)N[C@H]7CCC(=O)NC7=O)nc6OC[C@H]5C3)CO4)cn2)N1CC(F)(F)F (stereo partly drawn) [Compound B93, (4aR)-N-((S)-2,6-dioxopiperidin-3-yl)-3-((8-(6-((6S,8R)-8-methyl-7-(2,2,2-trifluoroethyl)-6,7,8,9-tetrahydro-3H-pyrazolo[4,3-f]isoquinolin-6-yl)pyridin-3-yl)-1-oxa-8-azaspiro[4.5]decan-3-yl)methyl)-1,2,3,4,4a,5-hexahydropyrazino[1,2-d]pyrido[2,3-b][1,4]oxazine-8-carboxamide] | 10 to 100 | 1 to 10 |
| C[C@@H]1Cc2c(ccc3[nH]ncc23)[C@@H](c2c(F)cc(N3CC4(CCN(C(=O)CN5CCN6c7cc8c(cc7OC[C@@H]6C5)C(=O)N(C5CCC(=O)NC5=O)C8)C4)C3)cc2F)N1CC(F)F (stereo partly drawn) [Compound B36, 3-((S)-3-(2-(2-(4-((6S,8R)-7-(2,2-difluoroethyl)-8-methyl-6,7,8,9-tetrahydro-3H-pyrazolo[4,3-f]isoquinolin-6-yl)-3,5-difluorophenyl)-2,6-diazaspiro[3.4]octan-6-yl)-2-oxoethyl)-8-oxo-1,2,3,4,4a,5,8,10-octahydro-9H-pyrazino[1′,2′:4,5][1,4]oxazino[2,3-f]isoindol-9-yl)piperidine-2,6-dione] | < 10 | < 1 |
| COc1cc(N2CCC(N3CC(N4CCN5c6cc7c(cc6OC[C@@H]5C4)C(=O)N(C4CCC(=O)NC4=O)C7)C3)CC2)ccc1[C@@H]1c2ccc3[nH]ncc3c2C[C@@H](C)N1CC(F)F (stereo partly drawn) [Compound B53, 3-((S)-3-(1-(1-(4-((6S,8R)-7-(2,2-difluoroethyl)-8-methyl-6,7,8,9-tetrahydro-3H-pyrazolo[4,3-f]isoquinolin-6-yl)-3-methoxyphenyl)piperidin-4-yl)azetidin-3-yl)-8-oxo-1,2,3,4,4a,5,8,10-octahydro-9H-pyrazino[1′,2′:4,5][1,4]oxazino[2,3-f]isoindol-9-yl)piperidine-2,6-dione] | 10 to 100 | < 1 |
| C[C@@H]1Cc2c(ccc3[nH]ncc23)[C@@H](c2c(F)cc(N3CCC(CN4CCN5c6cc7c(cc6N(C)C[C@@H]5C4)C(=O)N(C4CCC(=O)NC4=O)C7)CC3)cc2F)N1CC(F)F (stereo partly drawn) [Compound B29, 3-((S)-3-((1-(4-((6S,8R)-7-(2,2-difluoroethyl)-8-methyl-6,7,8,9-tetrahydro-3H-pyrazolo[4,3-f]isoquinolin-6-yl)-3,5-difluorophenyl)piperidin-4-yl)methyl)-6-methyl-8-oxo-2,3,4,4a,5,6,8,10-octahydropyrazino[1,2-a]pyrrolo[3,4-g]quinoxalin-9(1H)-yl)piperidine-2,6-dione] | < 10 | < 1 |
| C[C@@H]1Cc2c(ccc3[nH]ncc23)[C@@H](c2ccc(N3CC4(CCC(CN5CCN6c7ccc8c(c7OC[C@@H]6C5)CN(C5CCC(=O)NC5=O)C8=O)CC4)C3)cn2)N1CC(F)F (stereo partly drawn) [Compound B87, 3-((S)-7-((2-(6-((6S,8R)-7-(2,2-difluoroethyl)-8-methyl-6,7,8,9-tetrahydro-3H-pyrazolo[4,3-f]isoquinolin-6-yl)pyridin-3-yl)-2-azaspiro[3.5]nonan-7-yl)methyl)-1-oxo-1,3,5,5a,6,7,8,9-octahydro-2H-pyrazino[1′,2′:4,5][1,4]oxazino[2,3-e]isoindol-2-yl)piperidine-2,6-dione] | < 10 | 1 to 10 |
| C[C@@H]1Cc2c(ccc3[nH]ncc23)[C@@H](c2c(F)cc(NC3CN(C(=O)CN4CCN5c6ccc7c(c6OC[C@H]5C4)CN(C4CCC(=O)NC4=O)C7=O)C3)cc2F)N1CC(F)F (stereo partly drawn) [Compound B100, 3-((R)-7-(2-(3-((4-((6S,8R)-7-(2,2-difluoroethyl)-8-methyl-6,7,8,9-tetrahydro-3H-pyrazolo[4,3-f]isoquinolin-6-yl)-3,5-difluorophenyl)amino)azetidin-1-yl)-2-oxoethyl)-1-oxo-1,3,5,5a,6,7,8,9-octahydro-2H-pyrazino[1′,2′:4,5][1,4]oxazino[2,3-e]isoindol-2-yl)piperidine-2,6-dione] | 10 to 100 | 1 to 10 |
| C[C@@H]1Cc2c(ccc3[nH]ncc23)[C@@H](c2c(F)cc(N3CC4(CCN(CC(=O)N5CCN6c7cc8c(cc7OC[C@@H]6C5)C(=O)N(C5CCC(=O)NC5=O)C8)CC4)C3)cc2F)N1CC(F)F (stereo partly drawn) [Compound B33, 3-((S)-3-(2-(2-(4-((6S,8R)-7-(2,2-difluoroethyl)-8-methyl-6,7,8,9-tetrahydro-3H-pyrazolo[4,3-f]isoquinolin-6-yl)-3,5-difluorophenyl)-2,7-diazaspiro[3.5]nonan-7-yl)acetyl)-8-oxo-1,2,3,4,4a,5,8,10-octahydro-9H-pyrazino[1′,2′:4,5][1,4]oxazino[2,3-f]isoindol-9-yl)piperidine-2,6-dione] | < 10 | < 1 |
| C[C@@H]1Cc2c(ccc3[nH]ncc23)[C@@H](c2ccc(N3CCC4(CCN(C(=O)CN5Cc6cc7c(cc6C5)C(=O)N(C5CCC(=O)NC5=O)C7)CC4)CC3)cn2)N1CC(F)(F)F (stereo partly drawn) [Compound B74, 3-(6-(2-(9-(6-((6S,8R)-8-methyl-7-(2,2,2-trifluoroethyl)-6,7,8,9-tetrahydro-3H-pyrazolo[4,3-f]isoquinolin-6-yl)pyridin-3-yl)-3,9-diazaspiro[5.5]undecan-3-yl)-2-oxoethyl)-1-oxo-3,5,6,7-tetrahydropyrrolo[3,4-f]isoindol-2(1H)-yl)piperidine-2,6-dione] |  | 1 to 10 |
